Data: patent US8772243B2, “Methods for predicting the response to anti-cancer treatment with an agonist of TLR7 or an agonist of TLR8” (Inserm (Institut National de la Sante et de la Recherche …, priority 2008, dated 2014)

Key:
[1] = system: Bcl-2 expression in SCC SK-MES cells; experiment: Bcl-2 expression, SK-MES; format: cell-based, human; conditions: data not shown
Description: Total RNA was extracted from A549 or SK-MES cells stimulated with loxoribine, Poly U, or Gardiquimod for 6 h or from purified human lung cancer cells using the RNeasy isolation-kit RNA (Qiagen, Courtaboeuf, France). The integrity and the quantity of the RNA were evaluated with a bioanalyzer-2100 (Agilent Technologies). All samples were assessed for gene expression analysis using the Taq Man Low-Density Array angiogenesis and immune panel (Applied Biosystem). The RT-PCR experiments were carried-out according to the manufacturer's instructions (Applied-Biosystems). Quantitative real-time TaqMan-PCR was performed using Low-Density-Arrays and the 7900 robotic real-time PCR-system (Applied-Biosystems). The 18S primers and probes were used as internal controls. Data were analyzed using the SDS Software v2.2 (Applied-Biosystems). The ΔCT values were calculated for each gene by subtraction of the CT value of the 18S housekeeping gene from the CT of the gene of interest. The ΔΔCT values were obtained by subtraction of the ΔCT values for unstimulated cells from the […]. The fold increase (arbitrary unit) was obtained by 2^−ΔΔCT.

A549 cells [2] = experiment: Tumor cell proliferation assay (Alamar blue reduction); format: cell-based, human; conditions: 10 μg/ml, ten days
Description: (§1) FIG. 4 TLR7 and 8 induce survival of lung tumor cells. (A) A549 cells were unstimulated, stimulated with loxoribine (10 μg/ml), Poly U (10 μg/ml), or Gardiquimod(10μg/ml) and incubated with Alamar blue for 10 days. Reduction of Alamar blue was then determined by spectrophotometry at 570 and 600 nm. The percentage of reduced Alamar blue was calculated as described by the manufacturer. A549 cells were unstimulated or stimulated with loxoribine, Poly U, Gardiquimod, etoposide, or cycloheximide for 24 h. (B) The percentage of dead cells was determined by Trypan blue exclusion. (C) The DNA content was measured by IP staining after RNAse A treatment. The percentages indicate the proportion of subdiploid (G0/G1) and […]. Data represent mean values±SD from 3 independent experiments (*p<0.05; ** p<0.01, Student test). (D) A549 cells were cultured for 6 h in the presence of loxoribine, Poly U, or Gardiquimod, and the expression of Bcl-2 was assayed using Taq Man Low Density Array technology. The ΔCT values for Bcl-2 expression were calculated by subtraction of the CT value obtained for the 18S housekeeping gene. The ΔΔCT values were obtained by subtraction of ΔCT values for unstimulated cells from those obtained for stimulated cells. The fold increase (arbitrary unit) was obtained by 2^−ΔΔCT.
Human lung cancer cell lines were seeded in 96-well plates (800 cells per well) and left unstimulated or were stimulated with loxoribine, Poly U, or Gardiquimod. The proliferation assay was performed with Alamar blue (AbD Serotec, Cergy Pontoise, France) according to the manufacturer's instructions. Briefly, cells were seeded and stimulated with TLR ligands in 100 μl of medium, and 10 μl of Alamar Blue was added. The optical density in each well was determined at 540 nm and 570 nm after 10 days of culture, and the percentage of reduced Alamar blue was determined. The percentage of reduced Alamar blue in unstimulated cells was determined as 100%, and the percentages of the stimulated cells were determined relative to this value.

A549 cells [3] = experiment: Cell cycle analysis (propidium iodide staining); format: cell-based, human; conditions: PI staining
Description: as §1
A549 cells were cultured in the presence of loxoribine, Poly U, Gardiquimod, etoposide, or cycloheximide. After 48 h, the cells were harvested, washed in cold PBS, and fixed with 2 ml of 70% cold ethanol in PBS for 2 h at 4° C. After centrifugation, the supernatant was removed and the pellet was rinsed with 0.5% PBS Tween. It was then incubated with […] of RNAse A and 50 μg of propidium iodide in PBS. Propidium iodide staining was determined with a FACScalibur cytometer.

A549 and SK-MES cells = experiment: Chemoresistance assay (Trypan blue and Alamar blue); format: cell-based, human; conditions: Alamar blue reduction
Description: FIG. 5 TLR7 and 8 induce chemoresistance of lung tumor cells. A549 (A-C) or SK-MES cells (D-F) were cultured with or without loxoribine or Poly U for 48 h, and then left untreated or were treated with cycloheximide, cisplatine, carboplatine, doxorubicine, or Navelbine. After 36 h, the percentage of dead cells was determined by Trypan blue exclusion (A, D) and cell viability was analyzed by the reduction of Alamar blue (B, C, E and F). Data represent mean values±SD from 3 independent experiments (*p<0.05; **p<0.01, ***p<0.001, Student test).
A549 and SK-MES cells were seeded in 96-well plates (1000 cells per well) and left unstimulated or were stimulated with loxoribine, Poly U, or Gardiquimod for 48 h. Cisplatine, carboplatine, doxorubicine, Navelbine, or cycloheximide was then added for an additional 36 h. The optical density in each well was determined 24 h after the addition of Alamar blue at 540 nm and 570 nm. Alternatively, viable and dead cells were counted using Trypan blue.

A549 cells [4] = experiment: A549 xenograft in NOD/SCID mice; format: in vivo
Description: Mice were anesthetized by intra-peritoneal injection of a solution containing 3.2 mg of ketamine (Virbac) and 0.16 mg of xylasine (Rompum 2%, Bayer Healthcare) in 80 μl of PBS (Gibco). Five days prior to experimentation, A549 cells were pre-stimulated with 100 μM Loxoribine (Invivogen) or left unstimulated. For each condition 5×10^6 cells were diluted in 250 μl PBS and injected subcutaneously to 5 mice per group and were re-stimulated either with 50 μl PBS or with 100 nmol of Loxoribine diluted in 50 μl PBS. Stimulating injections into the tumor site were carried out on the day the cells were injected and then on days 3, 6 and 9. The mice then received either 120 μA PBS, or a chemotherapy of cisplatine (2 mg/kg/injection diluted in 120 μl PBS) on days 18, 20 and 22, both intra-peritoneal. The volume of the tumor was determined by measuring the length (Lg), the width (Wi) of the tumor and by calculating (Lg*(Wi*Wi)/2.

Poly U
increase in Bcl-2 expression [1]: 100 fold | increase in reduction of Alamar blue versus unstimulated cells (A549 cells [2]): 20% | proportion of cells in G0/G1 or G2/M phases versus unstimulated cells (A549 cells [3]): did not observe any significant differences | cell viability after chemotherapy when stimulated prior to induction of apoptosis (A549 and SK-MES cells): significantly higher viability

C=CCn1c(=O)n([C@@H]2O[C@H](CO)[C@@H](O)[C@H]2O)c2nc(N)[nH]c(=O)c21 [loxoribine, 7-allyl-7,8-dihydro-8-oxo-guanosine]
increase in Bcl-2 expression [1]: 100 fold | tumor volume by week 14 (A549 cells [4]; A549 cells pre-stimulated 100 μM, 100 nmol into tumor site days 0, 3, 6, 9, control group 4 cm^3): 8 cm^3 | metastases at autopsy (A549 cells [4]; Loxoribine mice versus control mice): more ganglionic and pulmonary metastases than control mice | time of 50% mortality (A549 cells [4]; Loxoribine mice, NS mice towards week 17): ~15 week | tumor volume seven weeks after injection of tumor cells (A549 cells [4]; PBS-treated Loxoribine pre-stimulated group, PBS-treated NS group 1.9 cm^3): 5.3 cm^3 | tumor volume ratio, Loxoribine pre-stimulated versus NS group (A549 cells [4]; PBS-treated, seven weeks after injection): 2.5 times | increase in reduction of Alamar blue versus unstimulated cells (A549 cells [2]): 20% | proportion of cells in G0/G1 or G2/M phases versus unstimulated cells (A549 cells [3]): did not observe any significant differences | cell viability after chemotherapy when stimulated prior to induction of apoptosis (A549 and SK-MES cells): significantly higher viability
